Measured values: US20090156577A1, “7-AMINO ALKYLIDENYL-HETEROCYCLIC QUINOLONES AND NAPHTHYRIDONES” (priority 2004, published 2009)
Values after ≈ are worked out from the molar mass of the structure shown. Read-outs that look alike come from different tables or passages of the source.

System: pathogenic bacteria
Assay: MIC by microdilution broth method (NCCLS M7-A4), in vitro antibacterial activity
Type: cell-based
Procedure, shortened: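 Broth microdilution per NCCLS M7-A4: two-fold serial dilutions in cation-adjusted Mueller-Hinton broth, inoculum about 5×10^4 CFU/well. Trays incubated 16–20 h at 35 °C. MIC read by comparing growth against no-compound growth controls.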

[1] = Staphylococcus aureus, Organism A: Staphylococcus aureus OC4172, read-out: MIC
[2] = Streptococcus pneumoniae, ATCC49619, Organism E: Streptococcus pneumoniae ATCC 49619, read-out: MIC
[3] = Streptococcus pneumoniae, Organism C: fluoroquinolone-resistant clinical isolate of Streptococcus pneumoniae (QRDR amino acid substitutions)
[4] = Streptococcus pneumoniae, Organism D: fluoroquinolone-resistant clinical isolate of Streptococcus pneumoniae (QRDR amino acid substitutions)
[5] = Streptococcus pneumoniae, Organism B: fluoroquinolone-resistant clinical isolate of Streptococcus pneumoniae (QRDR amino acid substitutions)

Compound	MIC [1] [µg/mL]	MIC [2] [µg/mL]	MIC [3] [µg/mL]	MIC [4] [µg/mL]	MIC [5] [µg/mL]
CNC/C(F)=C1/CCCN(c2c(F)cc3c(=O)c(C(=O)O)cn(C4CC4)c3c2OC)C1.Cl [Compound 453, (E)-1-Cyclopropyl-6-fluoro-7-[3-(1-fluoro-2-methylamino-ethylidene)-piperidin-1-yl]-8-methoxy-4-oxo-1,4-dihydro-quinoline-3-carboxylic Acid Hydrochloride Salt]	0.06	0.25	4	2	–
COc1c(N2CCC(=C(Cl)CN)CC2)c(F)c(C)c2c(=O)c(C(=O)O)cn(C3CC3)c12 [Compound 455, 7-[4-(2-Amino-1-chloro-ethylidene)-piperidin-1-yl]-1-cyclopropyl-6-fluoro-8-methoxy-5-methyl-4-oxo-1,4-dihydro-quinoline-3-carboxylic Acid]	≤ 0.015	0.25 (≈ 0.556 µM)	2 (≈ 4.45 µM)	1 (≈ 2.22 µM)	0.12 (≈ 0.267 µM)
NC/C(F)=C1/CCCN(c2c(F)c(N)c3c(=O)c(C(=O)O)cn(C4CC4)c3c2F)C1 [Compound 456, 5-Amino-7-[(E)-3-(2-amino-1-fluoro-ethylidene)-piperidin-1-yl]-1-cyclopropyl-6,8-difluoro-4-oxo-1,4-dihydro-quinoline-3-carboxylic Acid]	≤ 0.015	0.03 (≈ 0.071 µM)	0.12 (≈ 0.284 µM)	0.12 (≈ 0.284 µM)	0.06 (≈ 0.142 µM)
NC/C(F)=C1/CCCN(c2c(F)cc3c(=O)c(C(=O)O)cn(C4CC4)c3c2OCF)C1 [Compound 457, 7-[(E)-3-(2-Amino-1-fluoro-ethylidene)-piperidin-1-yl]-1-cyclopropyl-6-fluoro-8-fluoromethoxy-4-oxo-1,4-dihydro-quinoline-3-carboxylic Acid]	0.25 (≈ 0.572 µM)	1 (≈ 2.29 µM)	8 (≈ 18.3 µM)	4 (≈ 9.14 µM)	2 (≈ 4.57 µM)
COc1c(N2CCC/C(=C(\F)CN)C2)c(F)c(C)c2c(=O)c(C(=O)O)cn(C3CC3)c12 [Compound 458, 7-[(E)-3-(2-Amino-1-fluoro-ethylidene)-piperidin-1-yl]-1-cyclopropyl-6-fluoro-8-methoxy-5-methyl-4-oxo-1,4-dihydro-quinoline-3-carboxylic Acid]	≤ 0.015	0.06 (≈ 0.138 µM)	0.25 (≈ 0.577 µM)	0.25 (≈ 0.577 µM)	0.03 (≈ 0.0692 µM)
Cc1c(N2CCC/C(=C(\F)CN)C2)c(F)cc2c(=O)c(C(=O)O)cn(C3CC3)c12 [Compound 459, 7-[(E)-3-(2-Amino-1-fluoro-ethylidene)-piperidin-1-yl]-1-cyclopropyl-6-fluoro-8-methyl-4-oxo-1,4-dihydro-quinoline-3-carboxylic Acid]	≤ 0.015	0.06 (≈ 0.149 µM)	0.25 (≈ 0.62 µM)	0.12 (≈ 0.297 µM)	–
COc1c(N2CCC(=C(F)CCN)CC2)c(F)cc2c(=O)c(C(=O)O)cn(C3CC3)c12 [Compound 467, 7-{4-[3-Amino-1-fluoro-propylidene]-piperidin-1-yl}-1-cyclopropyl-6-fluoro-8-methoxy-4-oxo-1,4-dihydro-quinoline-3-carboxylic Acid]	0.12 (≈ 0.277 µM)	0.5 (≈ 1.15 µM)	4 (≈ 9.23 µM)	1 (≈ 2.31 µM)	0.5 (≈ 1.15 µM)
C[C@H]1COc2c(N3CCC/C(=C(/F)CN)CC3)c(F)cc3c(=O)c(C(=O)O)cn1c23 [Compound 491, (3S)-9-[(Z)-4-(2-Amino-1-fluoro-ethylidene)-azepan-1-yl]-8-fluoro-3-methyl-6-oxo-2,3-dihydro-6H-1-oxa-3a-aza-phenalene-5-carboxylic Acid]	0.12 (≈ 0.286 µM)	1 (≈ 2.38 µM)	8 (≈ 19.1 µM)	16 (≈ 38.1 µM)	–
C[C@H]1COc2c(N3CCC/C(=C(\F)CN)CC3)c(F)cc3c(=O)c(C(=O)O)cn1c23 [Compound 492, (3S)-9-[(E)-4-(2-Amino-1-fluoro-ethylidene)-azepan-1-yl]-8-fluoro-3-methyl-6-oxo-2,3-dihydro-6H-1-oxa-3a-aza-phenalene-5-carboxylic Acid]	0.06 (≈ 0.143 µM)	0.25 (≈ 0.596 µM)	4 (≈ 9.54 µM)	8 (≈ 19.1 µM)	–
